Experiments:
Assay type in all cases: ADME, organism-based
Settings in all cases: in vivo
Oryza sativa [1] = assay: Effect on reducing sugar level in Sogatella furcifera-sensitive Oryza sativa (rice) plant ARC6248 leaf sheath measured per gram of dry weight at 0.0035% concentration (reference value: 6.41 mg/g dry wt)
Oryza sativa [2] = assay: Effect on total phenols level in Sogatella furcifera-resistanct Oryza sativa (rice) plant PR116 leaf sheath measured per gram of dry weight at 0.0018% concentration (reference value: 5.75 mg/g dry wt)
Oryza sativa [3] = assay: Effect on total protein level in Sogatella furcifera-resistanct Oryza sativa (rice) plant PR116 leaf sheath measured per gram of dry weight at 0.0018% concentration (reference value: 7.06 mg/g fresh wt)
Oryza sativa [4] = assay: Effect on total amino acids level in Sogatella furcifera-resistanct Oryza sativa (rice) plant PR116 leaf blade measured per gram of dry weight at 0.0018% concentration (reference value: 3.91 mg/g […])
Oryza sativa [5] = assay: Effect on reducing sugar level in Sogatella furcifera-resistanct Oryza sativa (rice) plant PR116 leaf blade measured per gram of dry weight at 0.0035% concentration (reference value: 9.35 mg/g dry wt)
Oryza sativa [6] = assay: Effect on reducing sugar level in Sogatella furcifera-resistanct Oryza sativa (rice) plant PR116 leaf blade measured per gram of dry weight at 0.0018% concentration (reference value: 9.35 mg/g dry wt)
Oryza sativa [7] = assay: Effect on total sugar level in Sogatella furcifera-resistanct Oryza sativa (rice) plant PR116 leaf blade measured per gram of dry weight at 0.0035% concentration (reference value: 36.16 mg/g dry wt)
Oryza sativa [8] = assay: Effect on total phenols level in Sogatella furcifera-resistanct Oryza sativa (rice) plant PR116 leaf blade measured per gram of dry weight at 0.0018% concentration (reference value: 8.08 mg/g dry wt)
Oryza sativa [9] = assay: Effect on total amino acids level in Sogatella furcifera-sensitive Oryza sativa (rice) plant ARC6248 leaf sheath measured per gram of dry weight at 0.0035% concentration (reference value: 2.11 mg/g fresh wt)
Oryza sativa [10] = assay: Effect on total protein level in Sogatella furcifera-resistanct Oryza sativa (rice) plant PR116 leaf blade measured per gram of dry weight at 0.0018% concentration (reference value: 21.67 mg/g fresh wt)
Oryza sativa [11] = assay: Effect on total phenols level in Sogatella furcifera-sensitive Oryza sativa (rice) plant ARC6248 leaf sheath measured per gram of dry weight at 0.0035% concentration (reference value: 12.75 mg/g dry wt)
Oryza sativa [12] = assay: Effect on total phenols level in Sogatella furcifera-resistanct Oryza sativa (rice) plant PR116 leaf sheath measured per gram of dry weight at 0.0035% concentration (reference value: 5.75 mg/g dry wt)
Oryza sativa [13] = assay: Effect on reducing sugar level in Sogatella furcifera-resistanct Oryza sativa (rice) plant PR116 leaf sheath measured per gram of dry weight at 0.0035% concentration (reference value: 7.50 mg/g dry wt)
Oryza sativa [14] = assay: Effect on total protein level in Sogatella furcifera-sensitive Oryza sativa (rice) plant ARC6248 leaf sheath measured per gram of dry weight at 0.0035% concentration (reference value: 6.11 mg/g […])
Oryza sativa [15] = assay: Effect on total phenols level in Sogatella furcifera-sensitive Oryza sativa (rice) plant ARC6248 leaf blade measured per gram of dry weight at 0.0018% concentration (reference value: 17.08 mg/g dry wt)
Oryza sativa [16] = assay: Effect on reducing sugar level in Sogatella furcifera-sensitive Oryza sativa (rice) plant ARC6248 leaf sheath measured per gram of dry weight at 0.0018% concentration (reference value: 6.41 mg/g dry wt)
Oryza sativa [17] = assay: Effect on total phenols level in Sogatella furcifera-sensitive Oryza sativa (rice) plant ARC6248 leaf sheath measured per gram of dry weight at 0.0018% concentration (reference value: 12.75 mg/g dry wt)
Oryza sativa [18] = assay: Effect on total sugar level in Sogatella furcifera-resistanct Oryza sativa (rice) plant PR116 leaf sheath measured per gram of dry weight at 0.0035% concentration (reference value: 30.27 mg/g dry wt)
Oryza sativa [19] = assay: Effect on total amino acids level in Sogatella furcifera-resistanct Oryza sativa (rice) plant PR116 leaf blade measured per gram of dry weight at 0.0035% concentration (reference value: 3.91 mg/g […])
Oryza sativa [20] = assay: Effect on total sugar level in Sogatella furcifera-resistanct Oryza sativa (rice) plant PR116 leaf sheath measured per gram of dry weight at 0.0018% concentration (reference value: 30.27 mg/g dry wt)
Oryza sativa [21] = assay: Effect on total amino acids level in Sogatella furcifera-sensitive Oryza sativa (rice) plant ARC6248 leaf blade measured per gram of dry weight at 0.0035% concentration (reference value: 3.54 mg/g fresh wt)
Oryza sativa [22] = assay: Effect on total phenols level in Sogatella furcifera-sensitive Oryza sativa (rice) plant ARC6248 leaf blade measured per gram of dry weight at 0.0035% concentration (reference value: 17.08 mg/g dry wt)
Oryza sativa [23] = assay: Effect on total protein level in Sogatella furcifera-resistanct Oryza sativa (rice) plant PR116 leaf blade measured per gram of dry weight at 0.0035% concentration (reference value: 21.67 mg/g fresh wt)
Oryza sativa [24] = assay: Effect on total sugar level in Sogatella furcifera-sensitive Oryza sativa (rice) plant ARC6248 leaf blade measured per gram of dry weight at 0.0018% concentration (reference value: 34.05 mg/g dry wt)
Oryza sativa [25] = assay: Effect on total protein level in Sogatella furcifera-sensitive Oryza sativa (rice) plant ARC6248 leaf blade measured per gram of dry weight at 0.0035% concentration (reference value: 17.67 mg/g fresh wt)
Oryza sativa [26] = assay: Effect on total protein level in Sogatella furcifera-resistanct Oryza sativa (rice) plant PR116 leaf sheath measured per gram of dry weight at 0.0035% concentration (reference value: 7.06 mg/g fresh wt)
Oryza sativa [27] = assay: Effect on total protein level in Sogatella furcifera-sensitive Oryza sativa (rice) plant ARC6248 leaf sheath measured per gram of dry weight at 0.0018% concentration (reference value: 6.11 mg/g […])
Oryza sativa [28] = assay: Effect on total sugar level in Sogatella furcifera-sensitive Oryza sativa (rice) plant ARC6248 leaf sheath measured per gram of dry weight at 0.0035% concentration (reference value: 25.98 mg/g dry wt)
Oryza sativa [29] = assay: Effect on total amino acids level in Sogatella furcifera-resistanct Oryza sativa (rice) plant PR116 leaf sheath measured per gram of dry weight at 0.0018% concentration (reference value: 2.58 mg/g […])
Oryza sativa [30] = assay: Effect on total sugar level in Sogatella furcifera-resistanct Oryza sativa (rice) plant PR116 leaf blade measured per gram of dry weight at 0.0018% concentration (reference value: 36.16 mg/g dry wt)
Oryza sativa [31] = assay: Effect on total amino acids level in Sogatella furcifera-resistanct Oryza sativa (rice) plant PR116 leaf sheath measured per gram of dry weight at 0.0035% concentration (reference value: 2.58 mg/g […])
Oryza sativa [32] = assay: Effect on total amino acids level in Sogatella furcifera-sensitive Oryza sativa (rice) plant ARC6248 leaf sheath measured per gram of dry weight at 0.0018% concentration (reference value: 2.11 mg/g fresh wt)
Oryza sativa [33] = assay: Effect on reducing sugar level in Sogatella furcifera-sensitive Oryza sativa (rice) plant ARC6248 leaf blade measured per gram of dry weight at 0.0035% concentration (reference value: 8.37 mg/g dry wt)
Oryza sativa [34] = assay: Effect on total protein level in Sogatella furcifera-sensitive Oryza sativa (rice) plant ARC6248 leaf blade measured per gram of dry weight at 0.0018% concentration (reference value: 17.67 mg/g fresh wt)
Oryza sativa [35] = assay: Effect on total sugar level in Sogatella furcifera-sensitive Oryza sativa (rice) plant ARC6248 leaf blade measured per gram of dry weight at 0.0035% concentration (reference value: 34.05 mg/g dry wt)
Oryza sativa [36] = assay: Effect on reducing sugar level in Sogatella furcifera-sensitive Oryza sativa (rice) plant ARC6248 leaf blade measured per gram of dry weight at 0.0018% concentration (reference value: 8.37 mg/g dry wt)
Oryza sativa [37] = assay: Effect on reducing sugar level in Sogatella furcifera-resistanct Oryza sativa (rice) plant PR116 leaf sheath measured per gram of dry weight at 0.0018% concentration (reference value: 7.50 mg/g dry wt)
Oryza sativa [38] = assay: Effect on total amino acids level in Sogatella furcifera-sensitive Oryza sativa (rice) plant ARC6248 leaf blade measured per gram of dry weight at 0.0018% concentration (reference value: 3.54 mg/g fresh wt)
Oryza sativa [39] = assay: Effect on total phenols level in Sogatella furcifera-resistanct Oryza sativa (rice) plant PR116 leaf blade measured per gram of dry weight at 0.0035% concentration (reference value: 8.08 mg/g dry wt)
Oryza sativa [40] = assay: Effect on total sugar level in Sogatella furcifera-sensitive Oryza sativa (rice) plant ARC6248 leaf sheath measured per gram of dry weight at 0.0018% concentration (reference value: 25.98 mg/g dry wt)

Compound: O=[N+]([O-])NC1=NCCN1Cc1ccc(Cl)nc1 [IMIDACLOPRID]
- Activity (Oryza sativa [1]): 6.63 mg
- Activity (Oryza sativa [2]): 6.17 mg
- Activity (Oryza sativa [3]): 6.06 mg
- Activity (Oryza sativa [4]): 3.73 mg
- Activity (Oryza sativa [5]): 11.85 mg
- Activity (Oryza sativa [6]): 12.72 mg
- Activity (Oryza sativa [7]): 39.91 mg
- Activity (Oryza sativa [8]): 8.08 mg
- Activity (Oryza sativa [9]): 2.48 mg
- Activity (Oryza sativa [10]): 18.89 mg
- Activity (Oryza sativa [11]): 14.08 mg
- Activity (Oryza sativa [12]): 6.67 mg
- Activity (Oryza sativa [13]): 8.81 mg
- Activity (Oryza sativa [14]): 5.56 mg
- Activity (Oryza sativa [15]): 17.67 mg
- Activity (Oryza sativa [16]): 7.28 mg
- Activity (Oryza sativa [17]): 14.75 mg
- Activity (Oryza sativa [18]): 32.41 mg
- Activity (Oryza sativa [19]): 4.27 mg
- Activity (Oryza sativa [20]): 31.34 mg
- Activity (Oryza sativa [21]): 3.73 mg
- Activity (Oryza sativa [22]): 18 mg
- Activity (Oryza sativa [23]): 21.11 mg
- Activity (Oryza sativa [24]): 40.45 mg
- Activity (Oryza sativa [25]): 17.78 mg
- Activity (Oryza sativa [26]): 6.67 mg
- Activity (Oryza sativa [27]): 5.56 mg
- Activity (Oryza sativa [28]): 30.27 mg
- Activity (Oryza sativa [29]): 2.4 mg
- Activity (Oryza sativa [30]): 40.98 mg
- Activity (Oryza sativa [31]): 2.68 mg
- Activity (Oryza sativa [32]): 2.02 mg
- Activity (Oryza sativa [33]): 8.8 mg
- Activity (Oryza sativa [34]): 15.11 mg
- Activity (Oryza sativa [35]): 37 mg
- Activity (Oryza sativa [36]): 9.67 mg
- Activity (Oryza sativa [37]): 8.8 mg
- Activity (Oryza sativa [38]): 3.21 mg
- Activity (Oryza sativa [39]): 8 mg
- Activity (Oryza sativa [40]): 34.55 mg

— ChEMBL document CHEMBL3045481, “Insecticide-induced resurgence of the whitebacked planthopper Sogatella furcifera (Horvath) (Hemiptera: Delphacidae) on rice varieties with different levels of resistance” (Crop Prot, 2011)
